The conditions of data set [1]: Crystal; DTA.
A short description of data set [2]: Molar enthalpy of transition or fusion. Conditions: Crystal; DSC.

The values that follow come from the NIST ThermoML archive (doi:10.1016/j.jct.2008.10.005).

Numbers after ± are expanded uncertainties.

Turning to `Clc1ccc(Cl)cc1` [1,4-dichlorobenzene], the Normal melting temperature in data set [1] turned out to be 53.00 ± 0.53 °C. The “Molar enthalpy of transition or fusion” value in data set [2] stood at 4.35 ± 0.213 kcal/mol.
For the compound `Clc1cccc(Cl)c1` [1,3-dichlorobenzene], the Normal melting temperature in data set [1] was -24.90 ± 0.53 °C. In data set [2], the “Molar enthalpy of transition or fusion” value worked out at 3.01 ± 0.203 kcal/mol.
Take `Clc1ccccc1Cl` [1,2-dichlorobenzene]: the Normal melting temperature in data set [1] was -17.30 ± 0.53 °C. Besides, the “Molar enthalpy of transition or fusion” value in data set [2] turned out to be 2.96 ± 0.203 kcal/mol.
On to `c1ccc2ccccc2c1` [naphthalene], for which the Normal melting temperature in data set [1] was determined as 80.10 ± 0.53 °C. In addition, the “Molar enthalpy of transition or fusion” value in data set [2] was determined as 4.54 ± 0.215 kcal/mol.
